Non-standard residues stand in square brackets, D forms with d. No end group written: not given here.
Tests used:
[1] = system: TNF-α secretion from RAW264.7 cells; assay: Inhibition of CpG-ODN-induced TNF-α secretion from RAW264.7 cells (ELISA); type: cell-based, murine; settings: for activity compared with P13 (inhibition of TNF-α after stimulation of RAW264.7 cells with CpG): SAR, versus P13; for Percent Inhibition of TNF-α secretion, CpG Stimulation / Inhibition of TNF-α secretion (percent inhibition) / Percent Inhibition of TNF-α secretion: RAW264.7, 4 hours; for Percent Inhibition of TNF-α secretion, CpG Stimulation: 1.25 ug/ml CpG-ODN; for Inhibition of TNF-α secretion (percent inhibition) / Percent Inhibition of TNF-α secretion: 1 μg/ml CpG-ODN
Procedure: (§1) RAW264.7 cells were plated at 1.5×10^5 cells/well-3×10^5 cells/well in 48-well plates. After 24 hours, the cells were incubated with peptides at various concentrations at room temperature in triplicate either before, simultaneous with, or after activation with various PAMPs for 18 hours. Cell-free supernatants were analyzed for cytokines by ELISA, in quadruplicate. RAW264.7 cells were stimulated with either CpG-ODN (1 μg/ml or 1.25 μg/ml), LPS (about 1 ng/ml), Poly (I:C) (about 10 μg/ml), flagellin (about 5 ng/ml), or zymosan (about 10 μg/ml). Dose response curves were done with each PAMP to determine optimal stimulation concentration. For CpG-ODN stimulation, cells were incubated for 4 hours at 37° C., supernatants collected, and TNF-α measured by ELISA. Any cytokine involved in inflammatory disease mediated toll receptor signaling can be measured using similar assays.
The effect of several peptides on TNF-α secretion from RAW264.7 cells in response to stimulation by CpG-ODN was studied. Each peptide was initially tested at 3 concentrations, 37 μM, 22.2 μM, and 11.1 μM. […] The peptides were then tested at 11.1 μM, 7.4 μM, and 3.7 μM (Table 3). […] Cell viability was examined for each peptide at the concentrations tested for TNF-α inhibition.
(§2) Inhibition of TNF-α secretion by various T-peptides was examined. RAW264.7 cells were plated at 3×10^5 cells/well in 48-well plates. After 24 h the cells were incubated with peptide at various concentrations at room temperature in triplicate for 15 minutes and then stimulated with 1.25 ug/ml CpG-ODN or 1 ng/ml LPS. Cells were then incubated for 4 hours at 37° C., supernatants collected, and TNF-α measured by ELISA. Percent inhibition was calculated by comparing TNF-α secretion from cells incubated with peptide to control cells with no peptide treatment. The inhibitive effects of peptides T3 (SEQ ID NO: 319), T11 (SEQ ID NO: 327), T21 (SEQ ID NO: 337), T36 (SEQ ID NO: 352), T37 (SEQ ID NO: 353), T51 (SEQ ID NO: 367), and T52 (SEQ ID NO: 368) were compared to inhibition by an analogue of P13 (SEQ ID NO: 369) having a sequence of nine arginine residues at the C-terminus (P13-R^9 (SEQ ID NO: 378)). (Table 4).

[2] = system: TNF-α secretion from RAW264.7 cells; assay: Inhibition of LPS-induced TNF-α secretion from RAW264.7 cells (ELISA); type: cell-based, murine; settings: 1 ng/ml LPS, 4 hours
Procedure: as §1, §2

C3H/HeJ mice = assay: Topical treatment in chronic otitis media (COM) model, ABR; type: in vivo, mouse
BALB/c mice [3] = assay: Middle ear inflammation: heat-inactivated S. pneumoniae plus peptide injected into the middle ear, histology after 3 days; type: in vivo, mouse; settings: single dose with heat-inactivated S. pneumoniae; paired t-tests
[4] = system: toll-like receptor-dependent signaling; assay: Cytokine secretion / signaling in response to TLR activation in vitro; type: cell-based
Procedure: as §1

BALB/c mice [5] = assay: LPS-induced septic shock model, pro-inflammatory mediators; type: in vivo; settings: mouse model
Procedure: BALB/c mice are injected i.p. with PBS, LPS at about 100 μg/mouse/250 μl, or about 100 μg LPS plus various doses of peptides. Serum is collected at about 2 and about 6 hours after treatment and evaluated for the pro-inflammatory cytokines MIP-2 and TNF-α by ELISA, and for soluble ICAM-1.

[6] = system: TNF-α secretion from RAW264.7 cells; assay: Inhibition of CpG-ODN-induced TNF-α secretion from RAW264.7 cells (ELISA); type: cell-based, murine; settings: peptide 3.1 μM (Table 3), 1 μg/ml CpG-ODN, 4 hours
BALB/c mice [7] = assay: Assay for crossing the tympanic membrane by FITC-labeled peptide; type: in vivo, mouse; settings: 10 μg/30 μl dropped on ear, 10 minutes; AOM ears; fluorescent microscopy
Procedure: Three BALB/c mice at 8-12 weeks of age were anesthetized with ketamine (100 mg/kg) and xylazine (20 mg/kg) prior to administration of bacteria. A ventral midline incision was made in the neck, and the bulla exposed after blunt dissection. The middle ear was inoculated through the bony wall with approximately 3.5 μL of a bacterial suspension (heat inactivated S. pneumoniae 10^10 CFU/ml) with a thin needle. Both the right and left ears received bacteria by bulla injection.
After 24 hours, animals received an otoscopic exam using an operating microscope. Mice were anesthetized as described above, and the tympanic membrane was inspected for the presence or absence of the following three criteria for acute otitis media (AOM): 1) middle ear effusion behind the tympanic membrane; 2) change in color of the tympanic membrane from clear to red or white (indicating inflammation and/or purulence in the middle ear); and 3) change in position of the tympanic membrane from neutral to bulging or retracted.
Four ears met the criteria for AOM. FITC labeled peptide P13-R^9 (SEQ ID NO: 378) (10 μg/30 μl) was dropped onto the middle ear. The peptide was allowed to absorb for 10 minutes. After 10 minutes, the external ear canal was flushed twice, and blotted to get rid of any remaining peptide. […]

Row | Substance | Inhibition of TNF-α secretion (percent inhibition) ([1]; peptide 7 μM (Table 3)) | Inhibition of TNF-α secretion (percent inhibition) ([1]; peptide 11 μM (Table 3)) | Percent Inhibition of TNF-α secretion ([1]; peptide 11.1 μM) | Percent Inhibition of TNF-α secretion ([1]; peptide 22.2 μM) | Percent Inhibition of TNF-α secretion ([1]; peptide 37 μM) | Inhibition of TNF-α secretion (percent inhibition) [6] | further results
1 | AIVKLTVYDCIRRRRRRRRR [T3-R^9] |  |  |  |  |  |  | activity compared with P13 (inhibition of TNF-α after stimulation of RAW264.7 cells with CpG) [1]: superior activity; Percent Inhibition of TNF-α secretion, CpG Stimulation ([1]; peptide 7.1 μM): 85%; Percent Inhibition of TNF-α secretion, CpG Stimulation ([1]; peptide 11.1 μM): 92%; Percent Inhibition of TNF-α secretion, CpG Stimulation ([1]; peptide 22 μM): 99%; Percent Inhibition of TNF-α secretion, LPS Stimulation ([2]; peptide 7.4 uM): 33%; Percent Inhibition of TNF-α secretion, LPS Stimulation ([2]; peptide 11.1 uM): 65%; Percent Inhibition of TNF-α secretion, LPS Stimulation ([2]; peptide 22.2 uM): 77%
2 | D-Asp-D-Ile-D-Val-D-Lys-D-Leu-D-Thr-D-Val-D-Tyr-D-Asp-D-Cys-D-Ile ([dD][dI][dV][dK][dL][dT][dV][dY][dD][dC][dI]) [D-P13, stereoisomer of P13 containing all D-amino acid residues] |  |  |  |  |  |  | improvement of hearing thresholds across all frequencies (C3H/HeJ mice; week 2 post-treatment): approximately 20 db; hearing thresholds by ABR across all four frequencies (C3H/HeJ mice; weeks 1 and 2 post-treatment): demonstrated efficacy
3 | DIVKLTVYACIRRRRRRRRR [T11-R^9] |  |  |  |  |  |  | activity compared with P13 (inhibition of TNF-α after stimulation of RAW264.7 cells with CpG) [1]: superior activity; Percent Inhibition of TNF-α secretion, LPS Stimulation ([2]; peptide 7.4 uM): 68%; Percent Inhibition of TNF-α secretion, LPS Stimulation ([2]; peptide 11.1 uM): 81%; Percent Inhibition of TNF-α secretion, LPS Stimulation ([2]; peptide 22.2 uM): 91%
4 | DIVKLTVYDCIRRRRRRRRR [P13-R^9] |  |  |  |  |  |  | Percent Inhibition of TNF-α secretion, CpG Stimulation ([1]; peptide 7.1 μM): 32%; Percent Inhibition of TNF-α secretion, CpG Stimulation ([1]; peptide 11.1 μM): 65%; Percent Inhibition of TNF-α secretion, CpG Stimulation ([1]; peptide 22 μM): 86%; Percent Inhibition of TNF-α secretion, LPS Stimulation ([2]; peptide 7.4 uM): 0%; Percent Inhibition of TNF-α secretion, LPS Stimulation ([2]; peptide 11.1 uM): 13%; Percent Inhibition of TNF-α secretion, LPS Stimulation ([2]; peptide 22.2 uM): 69%; bacterial-induced middle ear inflammation (amount of fluid, infiltrating cell number, thickness of the tympanic membrane) (BALB/c mice [3]): dramatically reduced; cytokine secretion from cell activation initiated independent of TLR stimulation [4]: no effect; cytokine secretion in response to TLR activation ([4]; TLR ligands individually or in combination): effectively inhibited; pro-inflammatory mediators in LPS-induced septic shock (BALB/c mice [5]): reduce pro-inflammatory mediators
5 | EMFTILEEYFMYRGLLGLRRRRRRRRRR (C-terminal nona-arginine (R9)) [76(S12)-R^9] | 67% | 84% | 82% | 84% | 87% | 44% | 
6 | EMFTILEEYFMYRGLLRRRRRRRRR (C-terminal nona-arginine (R9)) [79(S14)-R^9] | 77% | 86% | 85% | 93% | 97% | 0% | 
7 | EMFTILEEYFMYRGLRRRRRRRRR (C-terminal nona-arginine (R9)) [80(S15)-R^9] | 68% | 81% | 78% | 87% | 91% | 57% | 
8 | EMFTILEEYFMYRGRRRRRRRRR (C-terminal nona-arginine (R9)) [81(S16)-R^9] | 53% | 70% | 84% | 86% | 90% | 26% | 
9 | EMFTILEEYFMYRRRRRRRRR (C-terminal nona-arginine (R9)) [83(S17)-R^9] | 44% | 57% | 72% | 82% | 89% | 0% | 
10 | FITC-labeled P13-R^9: FITC (Fluorescein isothiocyanate) labeled peptide P13-R^9 (SEQ ID NO: 378) (DIVKLTVYDCIRRRRRRRRR; also: FITC label, position not given here) |  |  |  |  |  |  | crossing of the tympanic membrane and association with cells in middle ear fluid (BALB/c mice [7]): crosses the tympanic membrane
11 | FTILEEYFMYRGLLGLRIKYGRLFNEIRRRRRRRRR (C-terminal nona-arginine (R9)) [44(S3)-R^9] | 24% | 78% | 91% | 96% | 95% | 0% | 
12 | MFTILEEYFMYRGLLGLRIKYGRLFNEIRRRRRRRRR (C-terminal nona-arginine (R9)) [43(S2)-R^9] | 51% | 70% | 91% | 94% | 100% | 0% | 

— patent US20140378395A1, “Peptides for the Treatment of Hearing” (13Therapeutics, Inc., priority 2011, published 2014)
